Common to all, as to type: cell-based
The test system of assay [1] is PKB Ser473 phosphorylation in Rat1-myr-HA-p110 alpha cells. The experiment in a line: Reverse protein array, PKB Ser473 phosphorylation in Rat1-myr-HA-p110 alpha cells. To be noted: Rattus norvegicus, 0.5 h, 30 minutes compound incubation, read-out: p-PKB/IC50_alpha. The method, then:
(§1) No. 15140-114) and 10 μg/ml Puromycine (Sigma, cat. No. P9620).
(§2) The Rat1-myr-HA-p110 alpha, beta and delta cells were trypsinized and counted with a CASY TT cell counter (Schärfe System GmbH, Reutlingen Germany). The cells were diluted in fresh DMEM complete medium and 3×10^4 cells/150 μl/well seeded in 96-well TPP-tissue culture plates (TPP, cat. No. 92096). The plates were incubated at 37° C. and 5% CO2 under humidified condition for at least 20 h. Compound of formula I working solutions were prepared freshly as serial 8 step dilutions (vol/vol) in DMSO on the day of the experiment. The working solutions were further diluted 1/500 in cell culture medium to get final compound concentrations of 10, 3.333, 1.111, 0.370, 0.123, 0.041, 0.014, 0.005 μM. The final DMSO concentration was kept constant at 0.2%. cell culture medium containing 0.2% DMSO was used as vehicle treatment control. Post incubation, the cells were treated with the serial compound dilution. 50 μl of the compound medium mixture was added to the wells containing cells and 150 μl DMEM medium and incubated for 30 minutes (37° C., 5% CO2). After 30 minutes of incubation, the medium mixture was quickly removed by aspiration. For cell lysis, a mixture of 10% CLB1 CeLyA lysis buffer (Zeptosens, cat. No. 9000), 90% CSBL1 CeLyA spotting buffer (Zeptosens, cat. No. 9020) was freshly prepared and supplemented with 1% Octyl β-D-glucopyranoside (SIGMA, cat. No. 08001-5G) and 1 mM Na-Orthovanadate (Sigma, cat No. S-6508). 50 μl of the described lysis buffer mix was added to each well, followed by 10 minutes of incubation on ice. After an additional freeze-thaw cycle, another 50 μl of the lysis buffer mix without Octyl β-D-glucopyranoside was added to the wells, and 90 μl of the cell lysate was transferred to a 96-well V-bottom plate (Fisher Scientific, cat. No. 6067Y), followed by a centrifugation step (5 min, 1500 rpm at 19° C. in an Eppendorf 5810R centrifuge) to remove the unlysed cell debris.
(§3) The samples were spotted onto ZeptoMARK® PWG protein microarray chips (Zeptosens, Witterswil, Switzerland) with the piezoelectric microdispense-based, non-contact Nano-Plotter 2.1 (GeSiM, Grosserkmannsdorf, Germany). Each sample was spotted at 4 different sample concentrations (d1=100%, d2=75%, d3=50%, d4=25%) by diluting the cell lysate with the corresponding volume of lysis buffer mix. After spotting the ZeptoMARK® protein microarrays, the chips are incubated for 1 hour at 37° C. To receive a uniform blocking result, the CeLyA blocking buffer BB1 (Zeptosens, cat. No. 9040) is administered via an ultrasonic nebulizer. After 20 minutes of blocking the chips are extensively rinsed with deionized water (Milli-Q quality, 18MΩ×cm) and dried in a nitrogen air flow.
(§4) After the sample spotting and blocking procedure, the ZeptoMARK® chips were transferred to the ZeptoCARRIER (Zeptosens, cat. No. 1100), whose six flow cells individually address the six arrays on a chip, and washed twice with 200 μl CAB1 CeLyA assay buffer (Zeptosens, cat. No. 9032). The assay buffer was then aspirated and each compartment incubated with 100 μl of the primary target antibody (pAkt Ser473; CST#9271) at RT over night. Post incubation, the primary antibody was removed, the arrays washed twice with CAB1 buffer and further incubated with 100 μl of Alexa fluor 647-labeled anti rabbit IgG Fab fragments (Invitrogen; #Z25305) for one hour at RT in the dark. After incubation, the arrays were washed twice with 200 μl CAB1 buffer. The fluorescence of the target-bound Fab fragments is read out on the ZeptoReader (Zeptosens, Witterswil, Switzerland) using a laser (excitation wavelength 635 nm) and a CCD camera. The fluorescence signal was assessed with exposure times of 1, 3, 5 and 10 seconds, depending on the intensity of the signal. The resulting four images taken per array are stored as 16-bit TIF files. […]

Assay [2] deals with PKB Ser473 phosphorylation in Rat1-myr-HA-p110 beta cells. The experiment in a line: Reverse protein array, PKB Ser473 phosphorylation in Rat1-myr-HA-p110 beta cells. To be noted: Rattus norvegicus, 0.5 h, 30 minutes compound incubation, read-out: p-PKB/IC50_beta. The method, then: as §1, §2, §3, §4
The subject of assay [3] is PKB Ser473 phosphorylation in Rat1-myr-HA-p110 delta cells. In words: Reverse protein array, PKB Ser473 phosphorylation in Rat1-myr-HA-p110 delta cells. To be noted: Rattus norvegicus, 0.5 h, 30 minutes compound incubation, read-out: p-PKB/IC50_delta. As for the experimental part: as §1, §2, §3, §4

The structures appear in SMILES notation.

Regarding `CNc1ccc(-c2ccc3ncc4c(c3c2)n(-c2ccc(OC)nc2C)c(=O)n4C)cn1` [Example 11.2, 1-(6-Methoxy-2-methyl-pyridin-3-yl)-3-methyl-8-(6-methylamino-pyridin-3-yl)-1,3-dihydro-imidazo[4,5-c]quinolin-2-one], the results for the IC50 in assay [1], in assay [2] and in assay [3] were 6.97 nM, 15.2 nM and 31.4 nM, respectively.
The corresponding values for `CNc1ncc(-c2ccc3ncc4c(c3c2)n(-c2ccc(OC)nc2C)c(=O)n4C)cn1` [Example 11.3, 1-(6-Methoxy-2-methyl-pyridin-3-yl)-3-methyl-8-(2-methylamino-pyrimidin-5-yl)-1,3-dihydro-imidazo[4,5-c]quinolin-2-one] are 8.83 nM, 18.1 nM and 23.2 nM.
As for `COc1ccc(-n2c(=O)n(C)c3cnc4ccc(-c5cnc(N(C)C)nc5)cc4c32)c(C)n1` [Example 11.4, 8-(2-Dimethylamino-pyrimidin-5-yl)-1-(6-methoxy-2-methyl-pyridin-3-yl)-3-methyl-1,3-dihydro-imidazo[4,5-c]quinolin-2-one], the IC50 in assay [1] was 86.6 nM; in assay [2], 127 nM; in assay [3], 136 nM.
The corresponding values for `COc1ccc(-c2ccc3ncc4c(c3c2)n(-c2ccc(OC)nc2C)c(=O)n4C)cn1` [Example 11.5, 1-(6-Methoxy-2-methyl-pyridin-3-yl)-8-(6-methoxy-pyridin-3-yl)-3-methyl-1,3-dihydro-imidazo[4,5-c]quinolin-2-one] are 16.9 nM, 40.8 nM and 66.9 nM.
The corresponding values for `COc1ccc(-n2c(=O)n(C)c3cnc4ccc(-c5cnc(N)c(C(F)(F)F)c5)cc4c32)c(C)n1` [Example 11.6, 8-(6-Amino-5-trifluoromethyl-pyridin-3-yl)-1-(6-methoxy-2-methyl-pyridin-3-yl)-3-methyl-1,3-dihydro-imidazo[4,5-c]quinolin-2-one] are 6.11 nM, 13 nM and 15.5 nM.
